Results taken from ChEMBL document CHEMBL1132959, “Design of potent dicyclic (1-5/4-10) gonadotropin releasing hormone (GnRH) antagonists” (J Med Chem, 2000).
pKi: −log10 of the molar value.

What was measured:
Rattus norvegicus [1] = species: Rattus norvegicus; experiment: Antiovulatory potency at 1000 ug/rat expressed as rats ovulating by total no. of rats (3/3); assay type: functional
Rattus norvegicus [2] = species: Rattus norvegicus; experiment: Antiovulatory potency at 10 ug/rat expressed as rats ovulating by total no. of rats (4/8); assay type: functional
[3] = target: T1, Gonadotropin-releasing hormone receptor (Rattus norvegicus, UniProt P30969); experiment: Affinity for rat gonadotrophin releasing hormone (GnRH) receptor using HEK293 cells transfected with rat Gonadotropin-releasing hormone receptor; assay type: cell-based; settings: hek293
T1 sequence (P30969 whole entry): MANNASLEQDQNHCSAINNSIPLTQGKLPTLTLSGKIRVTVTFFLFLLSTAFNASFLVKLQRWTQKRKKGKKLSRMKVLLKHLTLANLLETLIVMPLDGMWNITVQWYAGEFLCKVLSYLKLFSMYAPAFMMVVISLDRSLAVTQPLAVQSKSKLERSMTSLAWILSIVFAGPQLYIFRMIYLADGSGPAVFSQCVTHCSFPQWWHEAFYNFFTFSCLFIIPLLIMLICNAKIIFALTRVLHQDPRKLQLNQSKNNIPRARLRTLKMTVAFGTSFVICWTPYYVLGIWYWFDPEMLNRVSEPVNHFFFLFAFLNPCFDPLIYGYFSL

Rattus norvegicus [4] = species: Rattus norvegicus; experiment: Antiovulatory potency at 25 ug/rat expressed as rats ovulating by total no. of rats (1/5); assay type: functional
Rattus norvegicus [5] = species: Rattus norvegicus; experiment: Antiovulatory potency at 5 ug/rat expressed as rats ovulating by total no. of rats (3/4); assay type: functional
Rattus norvegicus [6] = species: Rattus norvegicus; experiment: Antiovulatory potency at 500 ug/rat expressed as rats ovulating by total no. of rats (6/6); assay type: functional
Rattus norvegicus [7] = species: Rattus norvegicus; experiment: Antiovulatory potency at 100 ug/rat expressed as rats ovulating by total no. of rats (4/7); assay type: functional
Rattus norvegicus [8] = species: Rattus norvegicus; experiment: Antiovulatory potency at 250 ug/rat expressed as rats ovulating by total no. of rats (4/4); assay type: functional
Rattus norvegicus [9] = species: Rattus norvegicus; experiment: Antiovulatory potency at 250 ug/rat expressed as rats ovulating by total no. of rats (1/5); assay type: functional
Rattus norvegicus [10] = species: Rattus norvegicus; experiment: Antiovulatory potency at 500 ug/rat expressed as rats ovulating by total no. of rats (5/9); assay type: functional
Rattus norvegicus [11] = species: Rattus norvegicus; experiment: Antiovulatory potency at 10 ug/rat expressed as rats ovulating by total no. of rats (5/5); assay type: functional
Rattus norvegicus [12] = species: Rattus norvegicus; experiment: Antiovulatory potency at 5 ug/rat expressed as rats ovulating by total no. of rats (3/3); assay type: functional
Rattus norvegicus [13] = species: Rattus norvegicus; experiment: Antiovulatory potency at 10 ug/rat expressed as rats ovulating by total no. of rats (2/7); assay type: functional
Rattus norvegicus [14] = species: Rattus norvegicus; experiment: Antiovulatory potency at 1 ug/rat expressed as rats ovulating by total no. of rats (5/7); assay type: functional
Rattus norvegicus [15] = species: Rattus norvegicus; experiment: Antiovulatory potency at 2.5 ug/rat expressed as rats ovulating by total no. of rats (2/8); assay type: functional
Rattus norvegicus [16] = species: Rattus norvegicus; experiment: Antiovulatory potency at 25 ug/rat expressed as rats ovulating by total no. of rats (5/5); assay type: functional
Rattus norvegicus [17] = species: Rattus norvegicus; experiment: Antiovulatory potency at 50 ug/rat expressed as rats ovulating by total no. of rats (1/8); assay type: functional
Rattus norvegicus [18] = species: Rattus norvegicus; experiment: Antiovulatory potency at 100 ug/rat expressed as rats ovulating by total no. of rats (0/8); assay type: functional
[19] = target: T1, Gonadotropin-releasing hormone receptor; experiment: Affinity for rat Gonadotropin-releasing hormone receptor membrane evaluated using HEK293 cells transfected with rat Gonadotropin-releasing hormone receptor; assay type: cell-based
Rattus norvegicus [20] = species: Rattus norvegicus; experiment: Antiovulatory potency at 1000 ug/rat expressed as rats ovulating by total no. of rats (5/5); assay type: functional
Rattus norvegicus [21] = species: Rattus norvegicus; experiment: Antiovulatory potency at 25 ug/rat expressed as rats ovulating by total no. of rats (0/3); assay type: functional
Rattus norvegicus [22] = species: Rattus norvegicus; experiment: Antiovulatory potency at 10 ug/rat expressed as rats ovulating by total no. of rats (2/8); assay type: functional
Rattus norvegicus [23] = species: Rattus norvegicus; experiment: Antiovulatory potency at 250 ug/rat expressed as rats ovulating by total no. of rats (7/7); assay type: functional
Rattus norvegicus [24] = species: Rattus norvegicus; experiment: Antiovulatory potency at 50 ug/rat expressed as rats ovulating by total no. of rats (0/5); assay type: functional
Rattus norvegicus [25] = species: Rattus norvegicus; experiment: Antiovulatory potency at 500 ug/rat expressed as rats ovulating by total no. of rats (4/10); assay type: functional
Rattus norvegicus [26] = species: Rattus norvegicus; experiment: Antiovulatory potency at 250 ug/rat expressed as rats ovulating by total no. of rats (0/5); assay type: functional
Rattus norvegicus [27] = species: Rattus norvegicus; experiment: Antiovulatory potency at 100 ug/rat expressed as rats ovulating by total no. of rats (1/8); assay type: functional
Rattus norvegicus [28] = species: Rattus norvegicus; experiment: Antiovulatory potency at 250 ug/rat expressed as rats ovulating by total no. of rats (0/4); assay type: functional
Rattus norvegicus [29] = species: Rattus norvegicus; experiment: Antiovulatory potency at 100 ug/rat expressed as rats ovulating by total no. of rats (14/14); assay type: functional

Structure (SMILES): CC(=O)N[C@H](Cc1ccc2ccccc2c1)C(=O)N[C@H](Cc1ccc(Cl)cc1)C(=O)N[C@@H]1CCC(=O)NCCCC[C@@H](C(=O)N2CCC[C@H]2C(=O)N[C@H](C)C(N)=O)NC(=O)[C@H](CC(C)C)NC(=O)[C@@H](Cc2ccc3ccccc3c2)NC(=O)[C@H](CCCN=C(N)N)NC(=O)[C@H](C)NC1=O
- Ovulating rats (Rattus norvegicus [1]): 3

Structure (SMILES): CC(=O)N[C@@H]1CCC(=O)NCCC(=O)NC[C@H]2NC(=O)[C@@H](CC(=O)NC[C@H](C(N)=O)NC(=O)[C@H]3CCCN3C(=O)[C@H](CCCN=C(N)N)NC(=O)[C@@H](CC(C)C)NC(=O)[C@@H](Cc3ccc4ccccc4c3)NC2=O)NC(=O)[C@@H](Cc2c[nH]c3ccccc23)NC(=O)[C@H](Cc2ccc(Cl)cc2)NC1=O
- Ovulating rats (Rattus norvegicus [2]): 4
- pKi [3]: 9.12
- Ovulating rats (Rattus norvegicus [4]): 1
- Ovulating rats (Rattus norvegicus [5]): 3

Structure (SMILES): CC(=O)N[C@H](Cc1ccc2ccccc2c1)C(=O)N[C@@H]1CCC(=O)NCCCC[C@@H](C(=O)N2CCC[C@H]2C(=O)N[C@H](C)C(N)=O)NC(=O)[C@H](CC(C)C)NC(=O)[C@@H](Cc2ccc3ccccc3c2)NC(=O)[C@H](CCCN=C(N)N)NC(=O)[C@H](C)NC(=O)[C@@H](Cc2cccnc2)NC1=O
- Ovulating rats (Rattus norvegicus [1]): 3

Structure (SMILES): CC(=O)N[C@H]1CSSC[C@@H]2NC(=O)[C@@H](CC(=O)NC[C@H](C(N)=O)NC(=O)[C@H]3CCCN3C(=O)[C@H](CCCN=C(N)N)NC(=O)[C@@H](CC(C)C)NC(=O)[C@H](CCCN=C(N)N)NC2=O)NC(=O)[C@@H](Cc2c[nH]c3ccccc23)NC(=O)[C@H](Cc2ccc(Cl)cc2)NC1=O
- pKi [3]: 7.05
- Ovulating rats (Rattus norvegicus [6]): 6

Structure (SMILES): CC(=O)N[C@H](Cc1ccc2ccccc2c1)C(=O)N[C@H](Cc1ccc(Cl)cc1)C(=O)N[C@@H]1CC(=O)NCCCC[C@@H]2NC(=O)[C@H](CC(C)C)NC(=O)[C@@H](Cc3ccc4ccccc4c3)NC(=O)[C@H](CCCN=C(N)N)NC(=O)[C@H](CC(=O)NC[C@@H](C(N)=O)NC(=O)[C@@H]3CCCN3C2=O)NC1=O
- Ovulating rats (Rattus norvegicus [7]): 4
- Ovulating rats (Rattus norvegicus [8]): 4

Structure (SMILES): CC(=O)N[C@@H]1CC(=O)NC[C@@H]2NC(=O)[C@@H](CC(=O)NC[C@H](C(N)=O)NC(=O)[C@H]3CCCN3C(=O)[C@H](CCCN=C(N)N)NC(=O)[C@@H](CC(C)C)NC(=O)[C@@H](Cc3ccc4ccccc4c3)NC2=O)NC(=O)[C@@H](Cc2c[nH]c3ccccc23)NC(=O)[C@H](Cc2ccc(Cl)cc2)NC1=O
- Ovulating rats (Rattus norvegicus [9]): 1
- pKi [3]: 8.32
- Ovulating rats (Rattus norvegicus [10]): 5

Structure (SMILES): CC(=O)N[C@@H]1CCC(=O)N[C@@H](C)C(=O)NCC[C@H]2NC(=O)[C@@H](CC(=O)NC[C@H](C(N)=O)NC(=O)[C@H]3CCCN3C(=O)[C@H](CCCN=C(N)N)NC(=O)[C@@H](CC(C)C)NC(=O)[C@@H](Cc3ccc4ccccc4c3)NC2=O)NC(=O)[C@@H](Cc2c[nH]c3ccccc23)NC(=O)[C@H](Cc2ccc(Cl)cc2)NC1=O
- Ovulating rats (Rattus norvegicus [11]): 5
- pKi [3]: 8.80

Structure (SMILES): CC(=O)N[C@@H]1CCC(=O)NCC(=O)NC[C@H]2NC(=O)[C@@H](CC(=O)NC[C@H](C(N)=O)NC(=O)[C@H]3CCCN3C(=O)[C@H](CCCN=C(N)N)NC(=O)[C@@H](CC(C)C)NC(=O)[C@@H](Cc3ccc4ccccc4c3)NC2=O)NC(=O)[C@@H](Cc2c[nH]c3ccccc23)NC(=O)[C@H](Cc2ccc(Cl)cc2)NC1=O
- pKi [3]: 9.36
- Ovulating rats (Rattus norvegicus [12]): 3
- Ovulating rats (Rattus norvegicus [13]): 2

Structure (SMILES): CC(=O)N[C@@H]1CC(=O)NCC(=O)NCC[C@H]2NC(=O)[C@@H](CC(=O)NC[C@H](C(N)=O)NC(=O)[C@H]3CCCN3C(=O)[C@H](CCCN=C(N)N)NC(=O)[C@@H](CC(C)C)NC(=O)[C@@H](Cc3ccc4ccccc4c3)NC2=O)NC(=O)[C@@H](Cc2ccc3ccccc3c2)NC(=O)[C@H](Cc2ccc(Cl)cc2)NC1=O
- Ovulating rats (Rattus norvegicus [14]): 5
- Ovulating rats (Rattus norvegicus [15]): 2
- pKi [3]: 9.42

Structure (SMILES): CC(=O)N[C@@H]1CCC(=O)NCC(=O)NCC[C@@H]2NC(=O)[C@@H](CC(=O)NC[C@H](C(N)=O)NC(=O)[C@H]3CCCN3C(=O)[C@H](CCCN=C(N)N)NC(=O)[C@@H](CC(C)C)NC(=O)[C@@H](Cc3ccc4ccccc4c3)NC2=O)NC(=O)[C@@H](Cc2c[nH]c3ccccc23)NC(=O)[C@H](Cc2ccc(Cl)cc2)NC1=O
- Ovulating rats (Rattus norvegicus [16]): 5
- Ovulating rats (Rattus norvegicus [17]): 1
- Ovulating rats (Rattus norvegicus [18]): 0

Structure (SMILES): CC(=O)N[C@H]1CCC(=O)NCC(=O)NCC[C@H]2NC(=O)[C@H](CC(=O)NC[C@@H](C(N)=O)NC(=O)[C@@H]3CCCN3C(=O)[C@H](CCCNC(=N)N)NC(=O)[C@H](CC(C)C)NC(=O)[C@@H](Cc3ccc4ccccc4c3)NC2=O)NC(=O)[C@@H](Cc2c[nH]c3ccccc23)NC(=O)[C@@H](Cc2ccc(Cl)cc2)NC1=O
- pKi [19]: 8.54

Structure (SMILES): CC(C)C[C@@H]1NC(=O)[C@@H](Cc2ccc3ccccc3c2)NC(=O)[C@H](CCCN=C(N)N)NC(=O)[C@H](C)NC(=O)[C@@H](Cc2cccnc2)NC(=O)[C@@H](Cc2ccc(Cl)cc2)NC(=O)[C@@H](Cc2ccc3ccccc3c2)NC(=O)CCC(=O)NCCCC[C@@H](C(=O)N2CCC[C@H]2C(=O)N[C@H](C)C(N)=O)NC1=O
- Ovulating rats (Rattus norvegicus [20]): 5

Structure (SMILES): CC(=O)N[C@@H]1CC(=O)NCC(=O)NC[C@H]2NC(=O)[C@@H](CC(=O)NC[C@H](C(N)=O)NC(=O)[C@H]3CCCN3C(=O)[C@H](CCCN=C(N)N)NC(=O)[C@@H](CC(C)C)NC(=O)[C@@H](Cc3ccc4ccccc4c3)NC2=O)NC(=O)[C@@H](Cc2c[nH]c3ccccc23)NC(=O)[C@H](Cc2ccc(Cl)cc2)NC1=O
- Ovulating rats (Rattus norvegicus [21]): 0
- pKi [3]: 9.31
- Ovulating rats (Rattus norvegicus [22]): 2

Structure (SMILES): CC(=O)N[C@H]1CCC(=O)NCCCC[C@@H]2NC(=O)[C@H](CC(C)C)NC(=O)[C@@H](Cc3ccc4ccccc4c3)NC(=O)[C@H](CCCN=C(N)N)NC(=O)[C@H](CC(=O)NC[C@H](C(N)=O)NC(=O)[C@@H]3CCCN3C2=O)NC(=O)[C@@H](Cc2cccnc2)NC(=O)[C@H](Cc2ccc(Cl)cc2)NC1=O
- Ovulating rats (Rattus norvegicus [23]): 7
- pKi [3]: 8.96
- Ovulating rats (Rattus norvegicus [24]): 0

Structure (SMILES): CC(=O)N[C@H]1CSSC[C@H]2NC(=O)[C@@H](CC(=O)NC[C@H](C(N)=O)NC(=O)[C@H]3CCCN3C(=O)[C@H](CCCN=C(N)N)NC(=O)[C@@H](CC(C)C)NC(=O)[C@@H](Cc3ccc4ccccc4c3)NC2=O)NC(=O)[C@@H](Cc2c[nH]c3ccccc23)NC(=O)[C@H](Cc2ccc(Cl)cc2)NC1=O
- Ovulating rats (Rattus norvegicus [25]): 4
- pKi [3]: 9.60

Structure (SMILES): CC(=O)N[C@@H]1CCC(=O)NCC[C@H]2NC(=O)[C@@H](CC(=O)NC[C@H](C(N)=O)NC(=O)[C@H]3CCCN3C(=O)[C@H](CCCN=C(N)N)NC(=O)[C@@H](CC(C)C)NC(=O)[C@@H](Cc3ccc4ccccc4c3)NC2=O)NC(=O)[C@@H](Cc2c[nH]c3ccccc23)NC(=O)[C@H](Cc2ccc(Cl)cc2)NC1=O
- pKi [3]: 8.77
- Ovulating rats (Rattus norvegicus [26]): 0
- Ovulating rats (Rattus norvegicus [27]): 1

Structure (SMILES): CC(=O)N[C@H](Cc1ccc2ccccc2c1)C(=O)N[C@H](Cc1ccc(Cl)cc1)C(=O)N[C@@H]1CC(=O)NCC[C@@H](C(=O)N2CCC[C@H]2C(=O)N[C@H](C)C(N)=O)NC(=O)[C@H](CC(C)C)NC(=O)[C@@H](Cc2ccc3ccccc3c2)NC(=O)[C@H](CCCN=C(N)N)NC(=O)[C@H](C)NC1=O
- Ovulating rats (Rattus norvegicus [28]): 0
- Ovulating rats (Rattus norvegicus [29]): 14
